Measurements reported in US6407125B1, “Pharmacological agent and method of treatment” (Novactyl, Inc., priority 1995, dated 2002).

Legend:
[1] = Topical treatment of sunburn; assay type: in vivo; details: 1%, 5% or 10% picolinic acid in absorption base; over 25 cases
From the text: (§1) Furthermore, it is believed that the response of cells to stress, such as exposure to UV radiation, chemicals, bacteria, parasites or fungi is associated with the induction of heat shock proteins.

[2] = tested on: plantar wart; test: Topical treatment of virus-induced plantar ulcer; assay type: in vivo, human
Experimental: A patient with recurrent plantar wart of about 2 cm in diameter was treated with topical picolinic acid. The patient, a pathologist who had difficulty walking because of the pain caused by the ulcer, had experimented with numerous medications for more than three months without any significant results prior to treatment with the picolinic acid. It is relevant to note that many plantar ulcers are transformed into malignant tumors.
The patient was treated with a solution of 10% picolinic acid in deionized water for one week. […] They then were treated with 10% picolinic acid in Aquaphor. The ointment was placed on the ulcer and on a patch. The patch was replaced every 24 hours.

[3] = tested on: WI-38 cells; test: Growth of WI-38 cells (total cell protein, cell number); assay type: cell-based; details: 3 mM picolinic acid
Experimental: (§2) Cells were plated at 1.5×10^5 cells/60-mm dish; 48 hours later, the medium was removed, and new media with or without 3 mM picolinic acid was added. Total cell protein was determined at the indicated times; each point is the average of triplicate measurements from 2 cultures.
(§3) In initial experiments to examine the effects of fusaric acid on cell growth and viability, WI-38 and LoVo cells were incubated for 24 to 72 hours in medium with or without various doses of fusaric acid (0.1-1 mM). The growth of both WI-38 and LoVo cells was inhibited by 500 μM fusaric acid in a time and dose dependent manner, as shown below in Table 2.

[4] = molecular target: recombinant MPS-1 (Homo sapiens, UniProt P42677); test: Gel shift assay of zinc dependent binding of recombinant MPS-1 to DNA; 65Zn removal from MPS-1; assay type: biochemical
From the text: MPS-1 is a ubiquitous tumor marker and cell growth stimulator and is described in detail in the inventor's U.S. Pat. No. Re.35,585 (U.S. Pat. No. 5,243,041). MPS-1 has one zinc finger domain of the type CCCC. […] This is detected by a change in the electrophoretic mobility of MPS-1 under non-denaturing conditions. These experiments indicate that picolinic acid and derivatives should remove zinc and denature various types of zinc finger or zinc ring proteins, whether known or heretofore undiscovered, including viral proteins such as nucleocapsid p7 proteins, as will be explained further. Furthermore, the inventor has determined that any chemical compound, whether known or heretofore undiscovered, that will remove the zinc (or other metal) and denature the proteins or that will form a ternary complex (protein-zinc-chelator) can be effective as a therapeutic agent or as an autologous immune response modulator, as will be discussed in greater detail below.

[5] = Topical treatment of psoriasis; assay type: in vivo, human; details: preliminary information
From the text: Several patients suffering from proliferative skin disorders such as psoriasis have been included in a recent ongoing study of the anti-proliferative effects of topical picolinic acid. […] The patients may be treated with a topical application of approximately 5% to 20% picolinic acid, or a derivative thereof, in an absorption base. Alternatively, the patient may be treated with a solution containing approximately 5% to 20% picolinic acid, or derivative, in deionized water. The topical preparation may be applied twice a day or in an alternative pharmacologically acceptable regimen.

[6] = cited from earlier work
[7] = tested on: metastatic breast cancer; test: Topical treatment of metastatic breast cancer to skin and bone of the skull; assay type: in vivo, human; details: 10% in Aquaphor, changed twice daily, approximately 35 days
Experimental: A person with metastatic breast cancer to the skin and bone of the skull was treated with a topical preparation of 10% picolinic acid in Aquaphor. The preparation was applied to the cancerous lesions and to a bandage and changed twice daily. The multiple cancer lesions were approximately 1 to 1.5 cm in diameter.

[8] = tested on: osteosarcoma; test: Oral treatment of osteosarcoma in canine; assay type: in vivo, dog; details: 500 mg capsules twice daily, six days after initiating treatment
Experimental: The subject animal was a Bichon Frise dog that was diagnosed by a veterinarian with osteosarcoma. The osteosarcoma had invaded the dog's mandible and was encroaching on the lower portion of the orbit. The veterinarian began treatment with picolinic acid. The dog was administered 500 mg of picolinic acid, in capsules, twice daily. Six days after initiating treatment the veterinarian documented that the osteosarcoma had reduced approximately 40% in size. One week later the veterinarian observed that the tumor looked “necrotic”. The veterinarian incised the skin above the tumor and removed fluid from the center of the tumor.

[9] = tested on: transformed cells; details: cited from earlier work
[10] = tested on: metastatic colon cancer; test: Oral treatment of metastatic colon cancer, case; assay type: in vivo, human
From the text: The inventor has determined that systemic administration of picolinic acid or derivatives is effective in controlling various cancers with reduced side effects by mechanisms heretofore unknown or unanticipated. […] The patient's condition improved. Based upon known mechanisms of action, the inventor anticipated that the patient may become anemic due to the concomitant chelation of iron. However, the inventor discovered a completely novel response. Over the course of several weeks, the patent's hematocrit increased. The inventor determined that the increase in hemoglobin along with the clinical improvement, is a result of synergistic mechanisms. First, the chelation of the iron suppressed tumor angiogenesis and induce killer T-cell formation. Furthermore, the chelated iron appears to be actively and usefully transported to bone marrow to support hematopoesis.
The subject is a person with metastatic colon cancer. The subject presented with an enlarged lymph node in the neck. The lymph node was putting pressure on nerves causing a drooping of the subject's right eyelid. […] Treatment was initiated with 500 mg of picolinic acid in capsule form, by mouth twice daily. […] An aspiration needle biopsy of the lymph node was attempted but had to be repeated due to the fact that the pathologist was withdrawing necrotic tissue from the lymph node. […] The protocol includes increasing the dosage up to 2000 mg per day, or more, if required.

[11] = tested on: normal cells; details: longer exposure; most normal cells; cited from earlier work
[12] = Topical treatment of inflammation associated with acne; assay type: in vivo; details: 5% to 10% aqueous solution; more than 35 cases, adults and teenagers
From the text: as §1

[13] = tested on: LoVo cells; test: Growth of LoVo cells (total cell protein, cell number, DNA synthesis); assay type: cell-based, human; details: 3 mM picolinic acid
Experimental: as §2, §3
After 30 hours of treatment with 500 μM fusaric acid, there was a prominent decrease in cell number. DNA synthesis was completely (100%) inhibited by 24 hours. When treated with 500 μM fusaric acid, the majority of the LoVo cells acquired a rounded morphology by 48 hours.
However, after 100 hours, an increase in cell number was noted after 25 additional hours.

In the case of `O=C(O)c1ccccn1` [picolinic acid, 2-Pyridine carboxylic acid], the treatment of sunburn [1] is reported as “successfully used”, the plantar ulcer appearance ([2]; 10% solution in deionized water for one week) is reported as “Central necrosis was noted” and the plantar ulcer outcome ([2]; then 10% in Aquaphor on ulcer and patch, additional three weeks) is reported as “the plantar ulcer resolved”. The “toxic effects on WI-38 cells” value ([3]; up to 72 hours of treatment) was “no toxic effects”, the “growth of WI-38 cells” value ([3]; within 24 hours) was “inhibited” and the “reversibility of growth inhibition” value ([3]; within 24 hours of removal of the agent) was “reversible”. For the same compound, the “removal of radioactive 65Zn from MPS-1” value ([4]; CCCC zinc finger, change in electrophoretic mobility, non-denaturing conditions) was “remove radioactive 65Zn from MPS-1”, the “zinc dependent binding of recombinant MPS-1 to DNA” value ([4]; gel shift assays) was “inhibit the zinc dependent binding of recombinant MPS-1 to DNA” and the regression of psoriasis [5] was “significant effect in inducing regression of the psoriasis”. The solubility in water [6] was “readily soluble in water”, the cancer lesion outcome [7] was “resolved with scar tissue forming” and the “reduction in size of osteosarcoma” value [8] was “approximately 40%”. For the same compound, the “cytotoxicity in transformed cells” value [9] was “cytotoxicity and cell death”, the “estimated reduction in mass of cancerous lymph node” value ([10]; 500 mg capsule by mouth twice daily, within 72 hours, palpation) was “over 50%” and the tolerability ([10]; 500 mg picolinic acid twice daily) was “tolerating treatment well”. The hematocrit ([10]; oral picolinic acid, over several weeks) was “increased”, the “toxic effects in normal cells” value [11] was “no toxic effects” and the “treatment of inflammation associated with acne” value [12] was “successfully treated”. For the same compound, the “growth of LoVo cells” value [13] was “inhibited”.
